From patent US20250099596A1, “TETRAHYDRONAPHTHALENE COMPOUND, AND PREPARATION METHOD THEREFOR AND USE THEREOF IN MEDICINE” (Jiangsu Hengrui Pharmaceuticals Co., Ltd., priority 2021, published 2025)
≈ marks a conversion by molar mass, not a printed value. Where two headings read alike, the source gives them in different places.

Experiments:
[1] = test system: MCF7/ERα Y537S cells; test: Inhibitory activity on proliferation of ERα mutant-expressing MCF7 cells; assay type: cell-based; details: Homo sapiens, 144 h, 6 days incubation, CellTiter-Glo, read-out: IC50 (nM), inhibition of proliferation of ERα mutant-expressing MCF7 cells
Method in brief: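 MCF7 cells stably expressing ERα Y537S (lentiviral) were seeded in 2% FBS medium and exposed for 6 days at 37 °C to 9 concentrations (4-fold dilution from 1000 nM, 0.5% DMSO control). Viability read by CellTiter-Glo luminescence; IC50 calculated from concentration–signal data.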

[2] = Solubility in FassIF and FessIF solution; assay type: physicochemical; details: thermodynamic from solid
Procedure: Solution (A): 4.441 g of NaH2PO4·2H2O, 0.348 g of NaOH granules and 6.186 g of NaCl were added to 900 mL of ultrapure water and well mixed, and the solution was adjusted to pH 6.5±0.05 with 1 M NaOH, brought to volume (1000 mL) with water, and stored at 4° C. for future use.
FaSSIF solution (B): 0.161 g of sodium taurocholate (NaTC) and 59 mg of lecithin were dissolved in 20 mL of solution (A). The resulting solution was vigorously stirred overnight to form a clear micellar solution, and solution (A) was added to make a volume of 100 mL. The resulting solution was stored at 4° C. for future use (not more than 2 weeks).
Solution (A): 20.2 g of NaOH granules, 43.25 g of acetic acid and 59.37 g of sodium chloride were precisely weighed out and dissolved in a proper amount of ultrapure water. The solution was brought to volume (5 L), adjusted to pH 5.0 with 1 M NaOH or 1 M HCl, and stored at 4° C. for future use.
FeSSIF solution (B): 0.80652 g of sodium taurocholate (NaTC) and 295.5 mg of lecithin were dissolved in 25 mL of solution (A). […]
3.1. […] 10 μL of the stock solution (concentration 10 mM, dissolved in DMSO) was precisely measured out and well mixed with 990 μL of an organic solvent mixture (usually DMSO:acetonitrile:ethanol=1:1:1) in a 2 mL sample flask to obtain a 100 μM clear sample solution as a reference solution. […]

[3] = test system: MCF7 cells; test: Inhibitory effects on MCF7 cell proliferation (CellTiter-Glo); assay type: cell-based; details: Homo sapiens, 144 h, 6 days incubation, read-out: IC50 (nM), inhibition of MCF7 cell proliferation
Method in brief: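 MCF7 cells seeded at 3,000 cells/well in MEM with 2% FBS, then treated next day with 9 final concentrations (4-fold dilutions from 1000 nM) for 6 days at 37° C; blank control 0.5% DMSO. Viability read by CellTiter-Glo luminescence; IC50 fitted from concentration–signal data.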

With `CC(C)C[C@H]1CCc2cc(O)ccc2[C@H]1c1ccc(N2CCC(CN3CCN(c4ccc5c(c4)CN([C@H]4CCC(=O)NC4=O)C5=O)CC3)CC2)cc1` [Example 26-1, (S)-3-(5-(4-((1-(4-((1R,2R)-6-Hydroxy-2-isobutyl-1,2,3,4-tetrahydronaphthalen-1-yl)phenyl)piperidin-4-yl)methyl)piperazin-1-yl)-1-oxoisoindolin-2-yl)piperidine-2,6-dione] the IC50 [1] was 1.67 nM, the solubility at 24 h ([2]; FassIF solution pH 6.5, 37° C., read-out: Solubility in FassIF solution) was 97 µM (≈ 68.3 µg/mL) and the solubility at 24 h ([2]; FessIF solution pH 5.0, 37° C., read-out: Solubility in FessIF solution) was 553 µM (≈ 389 µg/mL). For the same compound, the IC50 [3] was 0.59 nM.
